Data taken from publication PMC8880129, “Plant- and Bacteria-Derived Compounds with Anti-Philasterides dicentrarchi Activity” (Pathogens, 2022).
“And” between values parts separate entries of the source, which are not always exact repeats. Equal values may be shown once. Read-outs that look alike come from different tables or passages of the source.

Experiments:
[1] = test system: Philasterides dicentrarchi; experiment: microbe, parasite or virus in culture; conditions: for Ciliate Mortality 3 h (%) / parasites killed after 24 h: 100 μM, culture medium; for Ciliate Mortality 3 h (%): mean ± SD of three replicates; for mortality at 100 µM / GI50 / inhibition at 100 µM: Philasterides dicentrarchi; for Ciliate Mortality 3 h (%) / mortality at 100 µM: 3 h; for mortality at 100 µM: read-out: Ciliate Mortality 3 h (%), 100 μM, 3 h, culture medium, mean ± SD of three replicates; for inhibition at 100 µM: read-out: Growth Inhibition 24 h (%), 100 μM, 24 h, culture medium, mean ± SD of three replicates; for effect on the ciliate (lysis, movement): microscopy observation
Protocol: P. dicentrarchi (isolate I1), obtained from an outbreak of scuticociliatosis in cultured turbot in Galicia, was routinely cultured at 18 °C in complete sterile L15 medium (Leibovitz, PAA Laboratories GmbH, 1% salinity, pH 7.2) containing 90 mg/L each of adenosine, cytidine, and uridine, 150 mg/L of guanosine, 5 g/L of glucose, 400 mg/L of L-α-phosphatidylcholine, 200 mg/L of Tween 80, 10% of heat-inactivated foetal bovine serum (FBS), and 10 mL/L of 100X antibiotic–antimycotic solution (100 units/mL of penicillin G, 0.1 mg/mL of streptomycin sulphate and 0.25 mg/mL of amphotericin B), as previously described. Alternatively, ciliates were cultured in seawater with autoclaved marine bacteria (10^6 cells/mL) supplied as food at 21 °C. The ciliates were cultured under normoxic conditions in tissue culture flasks fitted with vented caps that enabled aeration of the culture medium.
We tested the toxicity to P. dicentrarchi of 26 compounds of natural origin (Table 1). The compounds were prepared in 10 mM stock solutions in dimethyl sulfoxide (DMSO) and maintained at −20 °C until use. In addition, the Pseudomonas H6 lipopeptide surfactant (PS) was prepared, lyophilised and stored at −20 °C [37]. A stock solution of PS was prepared in distilled water (1000 ppm) and diluted in culture medium or seawater at the final concentrations used in each assay and sterile filtered (through 0.2 µm filters) before being added to the parasites or EPC cells.
The anticiliate activity was assayed as previously described, with minor modifications. Ciliates were concentrated by centrifugation at 650× g for 5 min and resuspended in a medium at the concentration required for the assays. All experiments were carried out in triplicate. Wells containing ciliates in a culture medium or seawater without the test compounds were assayed as negative controls. To rule out any possible effects of the solvent (DMSO), triplicate wells with a culture medium or seawater containing the highest concentration of DMSO used (up to 1%) were also included. […] In these assays, the compounds were diluted in 1 mL of culture medium or seawater and added to the wells of 24-well sterile culture plates containing 2.5 × 10^4 ciliates per well, at final concentrations of […], 6.25, 12.5, 25, 50, and 100 µM in culture medium. The effects of the compounds on the motility and morphology of the ciliates were monitored periodically (at 30 min, 1, 2, 3, 24, and 48 h) under an inverted optical microscope. Ciliates were considered dead when they lysed and were not motile. The results obtained are expressed as percentage mortality for each experimental group. To estimate the total number of ciliates per well, the ciliates were inactivated by adding 0.25% glutaraldehyde and counted in a haemocytometer under an optical microscope. The lowest dose of the selected compounds resulting in 100% ciliate mortality (LC100) was assessed at 1, 2, and 3 h after incubation of parasites with sample dilutions (from 0 to 100 μg/mL, in 10 μg intervals). The concentration that inhibited 50% of ciliate growth (GI50), in comparison with the control group, was calculated with Excel software (Microsoft Office; Microsoft, Redmond, WA, USA) by plotting the dose-response data (log dose-per cent of growth inhibition) and applying linear regression (y = mx + b) for data fitting. The values were then calculated from the equation log GI50 = (50 − b)/m, where m is the slope y1 − y2/x1 − x2, and b is the intercept of the line.

[2] = test system: Philasterides dicentrarchi; experiment: Anticiliate activity, ciliates maintained in seawater (LC100, LC50); format: cell-based; conditions: 3 h incubation
Protocol: All experiments were carried out in triplicate.

[3] = Toxicity to EPC cell line, MTT assay; format: cell-based, fish; conditions: fish, compound at its GI50 (24 h), MTT, read-out: EPC Cell Viability (%) Mean ± SD; for viability at 3 h: 3 h incubation; for viability at 24 h: 24 h incubation
Protocol: (§1) We used the Epithelioma Papulosum Cyprini (EPC) cell line, acquired from the American Type Culture Collection (ATCC®, Manassas, VA, USA), as a control for toxicity. The cell line, kindly provided by Doctors Pereira-Dopazo and Bandin from the Aquaculture Institute of the University of Santiago de Coompostela, was cultured in MEM medium equilibrated with Hanks’ balanced salts (Gibco, Thermo Fischer Sci., Waltham, MA, USA) supplemented with 10% foetal bovine serum and 10 mL/L of 100X antibiotic–antimycotic solution. Cells were maintained subconfluent at 25 °C in a cell culture incubator and used when the confluence reached 75%.
(§2) Cell viability was then estimated by the MTT (3-(4,5-dimethylthiazol-2-yl)-2,5-diphenyl tetrazolium bromide) assay, as previously described, with minor modifications. Briefly, 100 μL of the MTT solution (1 mg/mL in phosphate-buffered saline; pH 7.2) was added to each well, and plates were incubated at 25 °C for 4 h. The yellow tetrazolium salt of MTT is reduced by mitochondrial dehydrogenases in metabolically active cells to form insoluble purple formazan crystals, which are then dissolved by the addition of DMSO (50 μL/well). Prior to the addition of MTT or DMSO, the plates were washed, and the supernatant was removed. The absorbance was measured at 540 nm in a microplate reader (Multiskan™, Thermo Fischer Sci., Waltham, MA, USA), and the relative cell viability was expressed as the mean percentage of viable cells relative to untreated cells.
(§3) In the viability assay, the possible effect of DMSO was evaluated for each compound by the inclusion of three replicate wells with MEM medium and the same DMSO concentration as in the medium. […] Control cells with only MEM were also included in the assay.

EPC cells = experiment: Toxicity to EPC cell line, MTT assay; format: cell-based, fish; conditions: 24 h incubation, compound at its GI50 (24 h)
Protocol: as §1, §2, §3

Amyloodinium ocellatum = test system: Amyloodinium ocellatum; design: method as in PMID 32154278; conditions: 24 h incubation period; cited from earlier work
Saprolegnia delica = test system: Saprolegnia delica; design: method as in PMID 32154278; conditions: 0.1 mM; cited from earlier work
S. parasitica = test system: S. parasitica; design: method as in PMID 32154278; conditions: 0.1 mM; cited from earlier work
rainbow trout = test system: rainbow trout; design: method as in PMID 17979099; conditions: 100 to 2000 ppm in the diet for four weeks; cited from earlier work
Gyrodactylus kobayashii = test system: Gyrodactylus kobayashii; design: method as in doi:10.1016/j.aquaculture.2021.736372; conditions: exposure to 2.0 μg/mL; cited from earlier work
goldfish = test system: goldfish; design: method as in doi:10.1016/j.aquaculture.2021.736372; conditions: cited from earlier work
[4] = 24 h, read-out: GI50 24 h (compound concentration that inhibited 50% of parasite growth)
[5] = 48 h, read-out: GI50 48 h (compound concentration that inhibited 50% of parasite growth)

C[C@H]1CC[C@]2(NC1)O[C@H]1C[C@H]3[C@@H]4CC[C@H]5C[C@@H](O[C@@H]6O[C@H](CO)[C@H](O[C@@H]7O[C@H](CO)[C@@H](O)[C@H](O[C@@H]8OC[C@@H](O)[C@H](O)[C@H]8O)[C@H]7O[C@@H]7O[C@H](CO)[C@@H](O)[C@H](O)[C@H]7O)[C@H](O)[C@H]6O)CC[C@]5(C)[C@H]4CC[C@]3(C)[C@H]1[C@@H]2C [Tomatine]
Ciliate Mortality 3 h (%) [1]: 93.33 ± 2.31%
parasites killed after 24 h ([1]; 24 h): killed all the parasites
mortality at 100 µM [1]: > 90%
GI50 [1, 4]: 10.1 ± 1.27 µM
inhibition at 100 µM ([1]; 24 h): 100%
GI50 [1, 5]: 8.51 ± 0.2 µM
effect on the ciliate (lysis, movement) [1]: very quick lysis of the ciliate
LC100 (lowest concentration resulting in 100% ciliate mortality) [2]: 10 µM
viability at 3 h [3]: 63 ± 6.82%
viability at 24 h [3]: 57.6 ± 7.7%
EPC cells killed (EPC cells): 43%
doses inhibiting dinospore motility (Amyloodinium ocellatum): 6.25–50 μg/mL and 0.006–0.05 mM
growth of Saprolegnia delica (Saprolegnia delica): inhibited
radial growth of S. parasitica (S. parasitica): inhibited
toxic effects of administration in the diet (rainbow trout): did not have toxic effects

CC1=CC(=O)c2c(O)cccc2C1=O [Plumbagin]
Ciliate Mortality 3 h (%) [1]: 100%
parasites killed after 24 h ([1]; 24 h): killed all the parasites
mortality at 100 µM [1]: > 90%
GI50 [1, 4]: 12.9 ± 1.16 µM
GI50 ([1]; 24 h, read-out: GI50 24 h expressed in μg/mL): 2.42 µg/mL
inhibition at 100 µM ([1]; 24 h): 100%
GI50 [1, 5]: 9.65 ± 0.67 µM
effect on the ciliate (lysis, movement) [1]: inhibited the ciliate movement, but it did not cause cell lysis for several hours
LC100 (lowest concentration resulting in 100% ciliate mortality) [2]: 30 µM
viability at 3 h [3]: 78.7 ± 1.4%
viability at 24 h [3]: 74.2 ± 3.94%
EPC cells killed (EPC cells): 26%
growth of Saprolegnia delica (Saprolegnia delica): inhibiting
time to complete death of Gyrodactylus kobayashii (Gyrodactylus kobayashii): ≤ 45 min
concentration toxic to goldfish (goldfish): higher than 0.5 mg/L
